# According to US8129527B2, “Analogs of dehydrophenylahistins and their therapeutic use” (Nereus Pharmacuticals, Inc., priority 2006, dated 2012):
# Marks after values point to notes of the source that are not given here.
# Test system: HT-29 human colon cells
# Experiment: Tumor cytotoxicity assay, resazurin fluorescence, 48 h (Example 6)
# Format: cell-based
# Settings: Homo sapiens, HT-29, read-out: EC50 HT-29, Table 3, cells printed in μM
row,SMILES,EC50
1,"COc1cc(/C=c2\[nH]c(=O)/c(=C/c3nc[nH]c3C(C)(C)C)[nH]c2=O)cc(OC)c1OC [KPU-11, tBu-ΔPLH-3,4,5-triOMe]",> 20 µM

# Same assay, conditions: in words
row,SMILES,cytotoxic activity against HT-29 cells
1,"COc1cc(/C=c2\[nH]c(=O)/c(=C/c3nc[nH]c3C(C)(C)C)[nH]c2=O)cc(OC)c1OC [KPU-11, tBu-ΔPLH-3,4,5-triOMe]",also showed activity

# Test system: not given
# Experiment: not given
# Settings: not given
row,SMILES,melting point
1,Cc1ccccc1/C=c1\[nH]c(=O)/c(=C/c2ncoc2C(C)(C)C)[nH]c1=O,177 to 179 °C
2,CC(C)(C)c1ocnc1/C=c1\[nH]c(=O)/c(=C/c2ccc(Br)o2)[nH]c1=O,184 to 186 °C
3,CC(C)(C)c1ocnc1/C=c1\[nH]c(=O)/c(=C/c2cccs2)[nH]c1=O,211 to 213 °C
4,Cc1oc(-c2ccccc2)cc1/C=c1\[nH]c(=O)/c(=C/c2ncoc2C(C)(C)C)[nH]c1=O,218 to 220 °C
5,CC(C)(C)c1ocnc1/C=c1\[nH]c(=O)/c(=C/c2cc(F)cc3c2OCOC3)[nH]c1=O,189 to 191 °C
6,CC(C)(C)c1ocnc1/C=c1\[nH]c(=O)/c(=C/c2cccc(C(=O)c3ccccc3)c2)[nH]c1=O,151 to 153 °C
7,"COc1cc(/C=c2\[nH]c(=O)/c(=C/c3ncoc3C(C)(C)C)[nH]c2=O)cc(OC)c1 [KPU-208, 3-{(Z)-1-[5-(tert-Butyl)-1H-4-oxazolyl]methylidene}-6-[(Z)-1-(3,5-dimethoxyphenyl)methlidene]-2,5-piperazinedione]",171 to 173 °C
8,"CC(C)(C)c1ocnc1/C=c1\[nH]c(=O)/c(=C/c2cc(Cl)cc(Cl)c2)[nH]c1=O [KPU-209, 3-{(Z)-1-[5-(tert-Butyl)-1H-4-oxazolyl]methylidene}-6-[(Z)-1-(3,5-dichlorophenyl)methlidene]-2,5-piperazinedione]",202 to 204 °C
9,"CC(C)(C)c1ocnc1/C=c1\[nH]c(=O)/c(=C/c2cccc(OC(F)(F)F)c2)[nH]c1=O [KPU-216, 3-{(Z)-1-[5-(tert-Butyl)-1H-4-oxazolyl]methylidene}-6-[(Z)-1-(3-trifluoromethoxyphenyl)methlidene]-2,5-piperazinedione]",187 to 189 °C
10,"Cc1ccsc1/C=c1\[nH]c(=O)/c(=C/c2ncoc2C(C)(C)C)[nH]c1=O [KPU-219, 3-{(Z)-1-[5-(tert-Butyl)-1H-4-oxazolyl]methylidene}-6-[(Z)-1-(3-methyl-2-thienyl)methlidene]-2,5-piperazinedione]",142 to 144 °C
11,"CC(C)(C)c1ocnc1/C=c1\[nH]c(=O)/c(=C/c2c3ccccc3cc3ccccc23)[nH]c1=O [KPU-231, 3-{(Z)-1-[5-(tert-Butyl)-1H-4-oxazolyl]methylidene}-6-[(Z)-1-(9-anthryl)methlidene]-2,5-piperazinedione]",274 to 276 °C
12,"CC(C)(C)c1ocnc1/C=c1\[nH]c(=O)/c(=C/c2ccc(-c3cccs3)s2)[nH]c1=O [KPU-234, 3-{(Z)-1-[5-(tert-Butyl)-1H-4-oxazolyl]methylidene}-6-[(Z)-1-(2,2′-bithienyl)methlidene]-2,5-piperazinedsione]",212 to 214 °C
13,"CC(C)(C)c1ocnc1/C=c1\[nH]c(=O)/c(=C/c2cc(F)cc(F)c2F)[nH]c1=O [KPU-235, 3-{(Z)-1-[5-(tert-Butyl)-1H-4-oxazolyl]methylidene}-6-[(Z)-1-(2,3,5-trifluorophenyl)methylidene]-2,5-piperazinedione]",185 to 187 °C
14,"CC(C)(C)c1ocnc1/C=c1\[nH]c(=O)/c(=C/c2c(F)c(F)cc(F)c2F)[nH]c1=O [KPU-236, 3-{(Z)-1-[5-(tert-Butyl)-1H-4-oxazolyl]methylidene}-6-[(Z)-1-(2,3,5,6-tetrafluorophenyl)methlidene]-2,5-piperazinedione]",194 to 196 °C
15,"CC(C)(C)c1ocnc1/C=c1\[nH]c(=O)/c(=C/c2c(F)ccc(F)c2F)[nH]c1=O [KPU-238, 3-{(Z)-1-[5-(tert-Butyl)-1H-4-oxazolyl]methylidene}-6-[(Z)-1-(2,36-trifluorophenyl)methlidene]-2,5-piperazinedione]",212 to 214 °C
16,"CC(C)(C)c1ocnc1/C=c1\[nH]c(=O)/c(=C/c2cn(S(=O)(=O)c3ccccc3)c3ccccc23)[nH]c1=O [KPU-239, 3-{(Z)-1-[5-(tert-Butyl)-1H-4-oxazolyl]methylidene}-6-[(Z)-1-(phenylsulfonyl-3-indolyl)methlidene]-2,5-piperazinedione]",133 to 135 °C

# The next lines start with the values.
row,melting point,SMILES
1,143 to 145 °C,"CC(C)(C)c1ocnc1/C=c1\[nH]c(=O)/c(=C/c2cccc(F)c2)[nH]c1=O [KPU-202, 3-{(Z)-1-[5-(tert-Butyl)-1H-4-oxazolyl]methylidene}-6-[(Z)-1-(3-fluorophenyl)methylidene]-2,5-piperazinedione]"
2,166 to 168 °C,"CC(C)(C)c1ocnc1/C=c1\[nH]c(=O)/c(=C/c2ccccc2Cl)[nH]c1=O [KPU-204, 3-{(Z)-1-[5-(tert-Butyl)-1H-4-oxazolyl]methylidene}-6-[(Z)-1-(2-chlorophenyl)methlidene]-2,5-piperazinedione]"
3,124 to 126 °C,"CCOc1cccc(/C=c2\[nH]c(=O)/c(=C/c3ncoc3C(C)(C)C)[nH]c2=O)c1 [KPU-210, 3-{(Z)-1-[5-(tert-Butyl)-1H-4-oxazolyl]methylidene}-6-[(Z)-1-(3-ethoxyphenyl)methlidene]-2,5-piperazinedione]"
4,170 to 172 °C,"CC(C)(C)c1ocnc1/C=c1\[nH]c(=O)/c(=C/c2cccc(Br)c2)[nH]c1=O [KPU-212, 3-{(Z)-1-[5-(tert-Butyl)-1H-4-oxazolyl]methylidene}-6-[(Z)-1-(3-bromophenyl)methlidene]-2,5-piperazinedione]"
5,170 to 172 °C,"CC(C)(C)c1ocnc1/C=c1\[nH]c(=O)/c(=C/c2ccccc2F)[nH]c1=O [KPU-214, 3-{(Z)-1-[5-(tert-Butyl)-1H-4-oxazolyl]methylidene}-6-[(Z)-1-(2-fluorophenyl)methlidene]-2,5-piperazinedione]"
6,149 to 151 °C,"CC(C)(C)c1ocnc1/C=c1\[nH]c(=O)/c(=C/c2ccccc2[N+](=O)[O-])[nH]c1=O [KPU-215, 3-{(Z)-1-[5-(tert-Butyl)-1H-4-oxazolyl]methylidene}-6-[(Z)-1-(2-nitrophenyl)methlidene]-2,5-piperazinedione]"
7,164 to 166 °C,"CC(C)(C)c1ocnc1/C=c1\[nH]c(=O)/c(=C/c2ccoc2)[nH]c1=O [KPU-217, 3-{(Z)-1-[5-(tert-Butyl)-1H-4-oxazolyl]methylidene}-6-[(Z)-1-(3-furyl)methlidene]-2,5-piperazinedione]"
8,151 to 153 °C,"COc1ccccc1/C=c1\[nH]c(=O)/c(=C/c2ncoc2C(C)(C)C)[nH]c1=O [KPU-224, 3-{(Z)-1-[5-(tert-Butyl)-1H-4-oxazolyl]methylidene}-6-[(Z)-1-(2-methoxyphenyl)methlidene]-2,5-piperazinedione]"
9,155 to 157 °C,"CC(C)(C)c1ocnc1/C=c1\[nH]c(=O)/c(=C/c2ccsc2)[nH]c1=O [KPU-226, 3-{(Z)-1-[5-(tert-Butyl)-1H-4-oxazolyl]methylidene}-6-[(Z)-1-(3-thienyl)methlidene]-2,5-piperazinedione]"
10,180 to 182 °C,"CC(C)(C)c1ocnc1/C=c1\[nH]c(=O)/c(=C/CCc2ccccc2)[nH]c1=O [KPU-228, 3-{(Z)-1-[5-(tert-Butyl)-1H-4-oxazolyl]methylidene}-6-[(Z)-1-(phenylpropyl)methlidene]-2,5-piperazinedione]"
11,201 to 203 °C,"CCOc1ccc2ccccc2c1/C=c1\[nH]c(=O)/c(=C/c2ncoc2C(C)(C)C)[nH]c1=O [KPU-229, 3-{(Z)-1-[5-(tert-Butyl)-1H-4-oxazolyl]methylidene}-6-[(Z)-1-(2-ethoxy-1-naphthyl)methlidene]-2,5-piperazinedione]"
12,234 to 236 °C,"COc1ccc2ccccc2c1/C=c1\[nH]c(=O)/c(=C/c2ncoc2C(C)(C)C)[nH]c1=O [KPU-230, 3-{(Z)-1-[5-(tert-Butyl)-1H-4-oxazolyl]methylidene}-6-[(Z)-1-(2-methoxy-1-naphthyl)methlidene]-2,5-piperazinedione]"

# Test system: HT-29 human colon tumor
# Experiment: HT-29 Human Colon Tumor Xenograft Model
# Format: in vivo
# Settings: Colon HT-29 (3 studies); CPT-11 Days 1, 8, 15 alone
# Protocol: Selected novel compounds were administered as monotherapy via the intraperitoneal (i.p.) route at the doses indicated for the individual study; for the combination studies the selected reference chemotherapy agents were injected 15-30 min prior to the compound.
# Saline dilutions are used to achieve the injection concentrations used for the reference compounds.
# Animals were implanted subcutaneously (s.c.) by trocar with fragments of HT-29 tumors harvested from s.c. growing tumors in nude mice hosts. When the tumor size reached 5 mm×5 mm (about 10-17 days) the animals were matched into treatment and control groups. Mice were weighed twice weekly and tumor measurements were obtained using calipers twice weekly, starting on Day 1. The tumor measurements were converted to estimated mg tumor weight using the formula (W^2×L)/2. When the estimated tumor weight of the control group reached an average of 1000 mg the mice were weighed, sacrificed and the tumor removed.
SMILES,Tumor Growth Inhibition (%) Reference Agent,Tumor Regression (#/total) Reference Agent
"CCc1c2c(nc3ccc(OC(=O)N4CCC(N5CCCCC5)CC4)cc13)-c1cc3c(c(=O)n1C2)COC(=O)[C@]3(O)CC [CPT-11, Irinotecan, reference compound]",37 ± 3%,0/30

# Same assay, conditions: Study 2139; CPT-11 alone 100 ip qwx3
row,SMILES,Chemotherapeutic Agent Result TGI %
1,"CCc1c2c(nc3ccc(OC(=O)N4CCC(N5CCCCC5)CC4)cc13)-c1cc3c(c(=O)n1C2)COC(=O)[C@]3(O)CC [CPT-11, Irinotecan, reference compound]",32.7%

# Same assay, conditions: Study 2164; CPT-11 alone 100 ip qwx3
row,SMILES,Chemotherapeutic Agent Result TGI %
1,"CCc1c2c(nc3ccc(OC(=O)N4CCC(N5CCCCC5)CC4)cc13)-c1cc3c(c(=O)n1C2)COC(=O)[C@]3(O)CC [CPT-11, Irinotecan, reference compound]",39* %

# Same assay, conditions: Study 2288; CPT-11 alone 100 ip qwx3
row,SMILES,Chemotherapeutic Agent Result TGI %
1,"CCc1c2c(nc3ccc(OC(=O)N4CCC(N5CCCCC5)CC4)cc13)-c1cc3c(c(=O)n1C2)COC(=O)[C@]3(O)CC [CPT-11, Irinotecan, reference compound]",36.5* %

# Same assay, conditions: study of KPU-2, KPU-35 and t-butyl-phenylahistin +/- CPT-11
row,SMILES,TGI vs NCI criterion
1,"CCc1c2c(nc3ccc(OC(=O)N4CCC(N5CCCCC5)CC4)cc13)-c1cc3c(c(=O)n1C2)COC(=O)[C@]3(O)CC [CPT-11, Irinotecan, reference compound]",did not reach this level

# Test system: Trichophyton rubrum
# Experiment: Antifungal susceptibility testing, broth dilution (MIC/MFC)
# Format: cell-based
# Settings: Trichophyton species
# Protocol: Specifically, disclosed compounds were evaluated alongside commercially available microtubulin inhibitors as well as recognized antifungal agents.
# Microorganisms against which these compounds were tested included: Candida albicans, Candida glabrata, Aspergillus fumigatus, Trichophyton rubrum, Trichophyton mentagrophytes, Epidermophyton floccosum. With the exception of Candida glabrata (one isolate), two isolates of each species were tested.
# The minimum lethal concentration (MLC) was determined by plating […] from the MIC concentration and each concentration above the MIC. […] When a MIC was obtained, a minimum fungicidal concentration (MFC) was determined to assess the fungistatic/fungicidal nature of the compound.
row,SMILES,antifungal potency compared with griseofulvin
1,"COc1cc(/C=c2\[nH]c(=O)/c(=C/c3nc[nH]c3C(C)(C)C)[nH]c2=O)cc(OC)c1OC [KPU-11, tBu-ΔPLH-3,4,5-triOMe]",equivalent in potency or in some cases more potent than griseofulvin
2,CC(C)(C)c1[nH]cnc1/C=C1\NC(=O)[C@H](Cc2ccccc2)NC1=O [t-butylphenylahistin],equivalent in potency or in some cases more potent than griseofulvin
